Experimental data taken from patent US20060252733A1, “Betulin, betulin derivatives, betulinic acid and betulinic acid derivatives as novel therapeutics in the treatment of disease of lipid and/or glucose metabolism” (Novelix Pharmaceuticals, Inc., priority 2005, published 2006).
Values after ≈ are worked out from the molar mass of the structure shown. Values joined by “and” are separate entries in the source; they are usually repeats but may differ in a detail not shown here. Equal values may be shown once.

Key:
[1] = tested on: human melanoma cell line (518A2); assay: Cell survival (cell counts) after 3 days of treatment; settings: for Survival in % / Survival (%): 3 days, vs untreated controls (=100%)
Procedure: Induction of cell death was evaluated in a human melanoma cell line (518A2) in the presence of simvastatin and NVX-207 alone or in combination. […] After 3 days of treatment, cell numbers were counted. Percentages of survival given are cell numbers compared to untreated controls (=100%). Experiments were repeated three times. Mean values are given.

Apolipoprotein A1 = target: T1, Apolipoprotein A1 (Bos taurus, UniProt P15497); assay: Identification of NVX-207 binding proteins (Sulfo-SBED biotin label transfer, 2-D gel, MALDI-TOF-MS); settings: Fetal Calf Serum, NVX-207 coupled to Sulfo-SBED at 5 μg/ml, with or without 20-fold molar excess of unlabeled NVX-207
T1 construct: from tissue; host or cells: fetal calf serum
T1 sequence (P15497 25-265 limits assumed): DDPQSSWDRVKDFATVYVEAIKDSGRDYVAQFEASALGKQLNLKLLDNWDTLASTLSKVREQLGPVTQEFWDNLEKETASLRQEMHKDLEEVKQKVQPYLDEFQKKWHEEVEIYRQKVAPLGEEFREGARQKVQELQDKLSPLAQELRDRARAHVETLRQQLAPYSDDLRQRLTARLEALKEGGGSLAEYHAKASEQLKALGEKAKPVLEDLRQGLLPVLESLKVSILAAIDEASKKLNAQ
Text: The presence of a primary amine group on NVX-207, a unique feature of this derivative compared to other known betulinic acid derived compounds, allows the coupling of other chemical compounds. A commercially available kit from Pierce was used to couple NVX-207 with biotin (Pierce-Sulfo-BED). This procedure allows the identification of NVX-207 binding proteins in protein lysates from any source. This procedure is generically illustrated in FIG. 2. In short, the amine groups of NVX-207 are modified via the Sulfo-NHS moiety of Sulfo-SBED. This derivatized NVX-207 is then incubated in the dark with a lysate or with a purified putative “prey” protein. The bait and prey complex is then captured or trapped by exposing the sample to high-intensity UV light, which activates the phenylazide moiety of Sulfo-SBED. This photoreactive group covalently links to the bound prey protein, capturing the interacting complex. […] The resulting biotin derivatized complex or prey protein can be detected using streptavidin-HRP or an anti-biotin antibody and chemiluminescent detection. […]
NVX-207 (at 5 μg/ml final concentration) coupled to […] with or without a 20-fold molar excess of unlabeled NVX-207 and resolved by 2-D gel electrophoresis. […] Several spots of similar molecular weight (˜24 kDa) and differing IP (in the range of 4.8 to 5.6) were detected by streptavidin-POD after 2-dimensional (2-D) gel electrophoresis.

[2] = tested on: human lung cancer cell line (A549); assay: NVX-207 IC50/IC80 concentrations in A549 cell cultures; assay type: cell-based; settings: A549 cells
[3] = tested on: human lung cancer cell line (A549); assay: Global gene expression analysis (Affymetrix gene chips) after NVX-207 treatment; assay type: cell-based
Procedure: For global gene expression analysis, total RNA was isolated from sub-confluent cell cultures at 4 and 14 hours after addition of NVX-207. […] For each time point and concentration, respectively, total RNA form 3 equally treated cultures was pooled and used for gene chip analysis. The experiment was repeated once. Four and 14 hours after addition of NVX-207, cells were washed with PBS and lysed directly in the culture dish with RNA-Bee according to the manufacturers instructions. Total RNA was then analyzed by using Affymetrix gene chips according to the manufacturers instructions.

[4] = tested on: hepatic low density lipoprotein (LDL) receptors; settings: animals; by increasing the expression of hepatic LDL receptors; cited from earlier work

C=C(C)[C@@H]1CC[C@]2(C(=O)OCC(N)(CO)CO)CC[C@]3(C)[C@H](CC[C@@H]4[C@@]5(C)CC[C@H](OC(C)=O)C(C)(C)[C@@H]5CC[C@]43C)[C@@H]12 [NVX-207]
effect on statin-induced cell death ([1]; 518A2 cells, in combination with simvastatin): reduces statin-induced cell death | Survival in % ([1]; NVX-207 0.5 μg/ml): 94% | Survival in % ([1]; NVX-207 1.0 μg/ml): 73% | Survival in % ([1]; NVX-207 2.0 μg/ml): 26% | Survival in % ([1]; NVX-207 4.0 μg/ml): 0% | binding to Apolipoprotein A1 (Apolipoprotein A1): binds to Apolipoprotein A1 | IC50 [2]: 1.5 µg/mL (≈ 2.49 µM) | IC80 [2]: 2.0 µg/mL (≈ 3.32 µM) | expression of the Table 1 genes with a functional role in lipid and/or glucose metabolism ([3]; 20 listed genes incl. LDL receptor, Insulin induced gene 1, 3-hydroxy-3-methylglutaryl-Coenzyme A reductase): NVX-207-Upregulated Genes with a Functional Role in Lipid | Fold-Induction ([3]; gene: 3-hydroxy-3-methylglutaryl-Coenzyme A synthase 1 (soluble)): 1.63 | Fold-Induction ([3]; gene: 24-dehydro-cholesterol reductase): 1.25 | Fold-Induction ([3]; gene: 216814_at): 0.86 | Fold-Induction ([3]; gene: ALEX3 protein): 1.20 | Fold-Induction ([3]; gene: ATP synthase, H+ transporting, mitochondrial F0 complex, subunit s (factor B)): 0.87 | Fold-Induction ([3]; gene: Acetyl-Coenzyme A acetyltransferase 2 (acetoacetyl Coenzyme A thiolase)): 1.44 | Fold-Induction ([3]; gene: Adenylate cyclase 9): 1.50 | Fold-Induction ([3]; gene: Ankyrin repeat domain 6): 1.48 | Fold-Induction ([3]; gene: Apoptosis inhibitor 5): 1.21 | Fold-Induction ([3]; gene: Choline kinase): 1.16 | Fold-Induction ([3]; gene: Chromosome 22 open reading frame 20): 1.56 | Fold-Induction ([3]; gene: Cyclic nucleotide gated channel alpha 1): 0.79 | Fold-Induction ([3]; gene: D15F37 (pseudogene)): 1.39 | Fold-Induction ([3]; gene: DEAD (Asp-Glu-Ala-Asp) box polypeptide 54): 0.66 | Fold-Induction ([3]; gene: Exportin 6): 0.89 | Fold-Induction ([3]; gene: Farnesyl-diphosphate farnesyltransferase 1): 1.89 | Fold-Induction ([3]; gene: Fatty-acid-Coenzyme A ligase, long-chain 3): 1.31 | Fold-Induction ([3]; gene: Glyoxalase I): 1.12 | Fold-Induction ([3]; gene: H63 breast cancer expressed gene): 0.66 | Fold-Induction ([3]; gene: HMT1 hnRNP methyltransferase-like 1): 0.62 | Fold-Induction ([3]; gene: Haspin): 0.92 | Fold-Induction ([3]; gene: Heterogeneous nuclear ribonucleoprotein A2/B1): 1.30 | Fold-Induction ([3]; gene: Homeo box B2): 1.26 | Fold-Induction ([3]; gene: Homo sapiens cDNA FLJ11590 fis, clone HEMBA1003758.): 1.56 | Fold-Induction ([3]; gene: Homo sapiens cDNA FLJ12075 fis, clone HEMBB1002425.): 1.50 | Fold-Induction ([3]; gene: Homo sapiens cDNA FLJ12932 fis, clone NT2RP2004897.): 1.55 | Fold-Induction ([3]; gene: Homo sapiens cDNA FLJ13272 fis, clone OVARC1001004.): 1.58 | Fold-Induction ([3]; gene: Homo sapiens cDNA FLJ26120 fis, clone SYN00419): 2.26 | Fold-Induction ([3]; gene: Homo sapiens cDNA FLJ33420 fis, clone BRACE2020028.): 1.41 | Fold-Induction ([3]; gene: Homo sapiens cDNA FLJ46153 fis, clone TESTI4001037): 0.81 | Fold-Induction ([3]; gene: Homo sapiens cDNA: FLJ23159 fis, clone LNG09628): 1.44 | Fold-Induction ([3]; gene: Homo sapiens full length insert cDNA clone ZE03A06): 0.70 | Fold-Induction ([3]; gene: Homo sapiens mRNA, cDNA DKFZp586O031 (from clone DKFZp586O031)): 1.13 | Fold-Induction ([3]; gene: Homo sapiens mRNA, cDNA DKFZp686L01105 (from clone DKFZp686L01105)): 2.37 and 2.09 and 1.73 | Fold-Induction ([3]; gene: Homo sapiens mRNA, cDNA DKFZp779K0112 (from clone DKFZp779K0112)): 1.48 | Fold-Induction ([3]; gene: Homo sapiens transcribed sequence with weak similarity to protein ref: NP_060265.1): 1.46 and 1.22 | Fold-Induction ([3]; gene: Homo sapiens, clone IMAGE: 5314747, mRNA): 1.77 | Fold-Induction ([3]; gene: Homo sapiens, clone IMAGE: 6205812, mRNA): 1.85 | Fold-Induction ([3]; gene: Hypothetical protein BC008207): 0.86 | Fold-Induction ([3]; gene: Hypothetical protein DKFZp761A132): 0.70 | Fold-Induction ([3]; gene: Hypothetical protein FLB8034 PRO2158): 1.45 | Fold-Induction ([3]; gene: Hypothetical protein FLJ10997 (ZNF654 zinc finger protein 654 [Homo sapiens])): 1.16 | Fold-Induction ([3]; gene: Hypothetical protein FLJ11577): 1.35 | Fold-Induction ([3]; gene: Hypothetical protein FLJ13611): 1.39 | Fold-Induction ([3]; gene: Hypothetical protein FLJ14639): 1.24 | Fold-Induction ([3]; gene: Hypothetical protein FLJ38499): 1.32 | Fold-Induction ([3]; gene: Hypothetical protein LOC125893): 1.34 | Fold-Induction ([3]; gene: Hypothetical protein LOC126661): 1.49 | Fold-Induction ([3]; gene: Hypothetical protein LOC283680): 1.26 | Fold-Induction ([3]; gene: Hypothetical protein MAC30): 1.46 | Fold-Induction ([3]; gene: Hypothetical protein MGC34695): 1.61 | Fold-Induction ([3]; gene: Hypothetical protein PRO1496): 1.46 | Fold-Induction ([3]; gene: Insulin induced gene 1): 2.56 | Fold-Induction ([3]; gene: Isopentenyl-diphosphate delta isomerase): 1.78 | Fold-Induction ([3]; gene: Jerky homolog-like (mouse)): 1.23 | Fold-Induction ([3]; gene: KIAA0101 gene product): 1.23 | Fold-Induction ([3]; gene: KIAA0335 gene product): 1.38 | Fold-Induction ([3]; gene: KIAA1450 protein): 1.21 | Fold-Induction ([3]; gene: Latrophilin 3): 0.77 | Fold-Induction ([3]; gene: Lipin 1): 1.88 | Fold-Induction ([3]; gene: Low density lipoprotein receptor (familial hypercholesterolemia)): 1.78 | Fold-Induction ([3]; gene: Machado-Joseph disease (spinocerebellar ataxia 39)): 1.45 | Fold-Induction ([3]; gene: Melan-A): 0.60 | Fold-Induction ([3]; gene: Mitochondrial ribosomal protein L30): 1.42 | Fold-Induction ([3]; gene: Mucin 4, tracheobronchial): 0.79 | Fold-Induction ([3]; gene: Mucolipin 3): 1.39 | Fold-Induction ([3]; gene: Natural killer-tumor recognition sequence): 1.45 and 1.28 | Fold-Induction ([3]; gene: Neurolysin (metallopeptidase M3 family)): 1.41 | Fold-Induction ([3]; gene: Nicotinamide nucleotide adenylyltransferase 2): 0.73 | Fold-Induction ([3]; gene: Pantothenate kinase 3): 1.23 | Fold-Induction ([3]; gene: Phorbol-12-myristate-13-acetate-induced protein 1): 1.26 | Fold-Induction ([3]; gene: Phosphodiesterase 4A, cAMP-specific (phosphodiesterase E2 dunce homolog, Drosophila)): 0.78 | Fold-Induction ([3]; gene: Pinin, desmosome associated protein): 1.17 | Fold-Induction ([3]; gene: Protocadherin 11 Y-linked): 1.37 | Fold-Induction ([3]; gene: Putative translation initiation factor): 1.14 | Fold-Induction ([3]; gene: Pyruvate dehydrogenase phosphatase isoenzyme 2): 1.40 | Fold-Induction ([3]; gene: Receptor-interacting factor 1): 1.10 | Fold-Induction ([3]; gene: Ring finger protein 125 (T-cell RING activation protein 1, TRAC-1)): 3.36 | Fold-Induction ([3]; gene: SKI-interacting protein): 1.10 | Fold-Induction ([3]; gene: SOCS box-containing WD protein SWiP-1): 1.20 | Fold-Induction ([3]; gene: SP140 nuclear body protein): 0.78 | Fold-Induction ([3]; gene: SPTF-associated factor 65 gamma): 0.69 | Fold-Induction ([3]; gene: Solute carrier family 2 (facilitated glucose transporter), member 6): 1.76 | Fold-Induction ([3]; gene: Solute carrier family 7, (cationic amino acid transporter, y+ system) member 11): 1.67 | Fold-Induction ([3]; gene: Squalene epoxidase): 1.60 | Fold-Induction ([3]; gene: Stearoyl-CoA desaturase (delta-9-desaturase)): 1.41 | Fold-Induction ([3]; gene: Sterol-C4-methyl oxidase-like): 1.87 | Fold-Induction ([3]; gene: Sterol-C5-desaturase (ERG3 delta-5-desaturase homolog, fungal)-like): 1.37 | Fold-Induction ([3]; gene: Surfactant, pulmonary-associated protein B): 1.43 | Fold-Induction ([3]; gene: Syntaxin 16): 0.86 | Fold-Induction ([3]; gene: Thyroid hormone receptor interactor 11): 1.70 | Fold-Induction ([3]; gene: Tumor necrosis factor (ligand) superfamily, member 9): 1.47 | Fold-Induction ([3]; gene: Ubiquitin specific protease 6 (Tre-2 oncogene)): 1.38 | Fold-Induction ([3]; gene: Ubiquitin specific protease 32): 1.25 | Fold-Induction ([3]; gene: Zinc finger protein 226): 1.46 | Fold-Induction ([3]; gene: Zinc finger protein 430): 1.24 | upregulation of INSIG-1 ([3]; within 4 hours of the addition of NVX-207): up to 3 fold

CCC(C)(C)C(=O)O[C@H]1C[C@@H](C)C=C2C=C[C@H](C)[C@H](CC[C@@H]3C[C@@H](O)CC(=O)O3)[C@H]21 [Simvastatin, reference compound]
Survival (%) ([1]; Simvastatin 0.5 μmol): 96% | Survival (%) ([1]; Simvastatin 1.0 μmol): 40% | Survival (%) ([1]; Simvastatin 2.0 μmol): 12% | Survival (%) ([1]; Simvastatin 4.0 μmol): 3%

C=CC[C@@H]1[C@H](O)CC[C@@]2(C)[C@H]1CC[C@@H]1[C@@H]2CC[C@]2(C)[C@@H]([C@H](C)CCCC(C)C)CC[C@@H]12 [LY295427]
plasma cholesterol levels [4]: reduce plasma cholesterol levels
